“Also recorded” adds a separate entry of the source. Where a name gives a salt, the structure may show the parent alone. Read-outs that look alike come from different tables or passages of the source.
Tests used:
TsGAR-2 [1] = biological target: T1, TsGAR-2 (Trichinella spiralis, UniProt E5SAZ1); assay: Aequorin calcium mobilization agonist assay in CHO-K1 cells expressing TsGAR-2; format: cell-based; details: for ACh-mediated calcium mobilization via TsGAR-2 (in words): Fig. 4
Description: (§1) T. spiralis GARs were heterologously expressed in CHO–K1 cells (Sigma) along with the aequorin reporter—with or without the wild-type human G protein alpha 15 subunit (Gα15(16)) (cDNA Resource Center, Bloomsburg University of Pennsylvania)—to observe activation of the receptor by monitoring bioluminescence triggered by the mobilization of intracellular calcium ([Offermanns and Simon, 1995]; [Park et al., 2002]). Therefore, there were two types of transient expression: i) TsGAR-1, -2, or -3/aequorin/Gα15(16); and ii) TsGAR-1, -2, or -3/aequorin. The use of Gα15(16) in the first assay is due to its highly efficient way of linking calcium mobilization signaling pathways to GPCRs that are preferentially coupling with Gi/o or Gs protein members ([Offermanns and Simon, 1995]).
(§2) For handling cell lines, all transfection details, and monitoring receptor activities, we followed the previously published study ([Šimo et al., 2011], [2013]; [Mateos-Hernández et al., 2020]). Briefly, CHO–K1 cells were kept in growth medium (Ham's F12 Media with 10% fetal bovine serum) until 70% of confluence was reached. FuGENE® HD Transfection Reagent (Promega) was then used to transfect the plasmid constructs. Prior to the assay, the cells were pre-equilibrated with coelenterazine h (Promega) for 3 h at room temperature. The assay was performed in opaque 96-well microplates (Nunc) using either Fluostar Omega (BMG Labtech) or GloMax® Plate Reader (Promega). In agonist assays, 50 μL of various doses of agonistic ligands were added to wells in triplicate, followed by injection of 50μL/∼15,000 of CHO–K1 cells. Immediately after the cell injections, luminescence values were monitored for 25 s and their integrated values over time were normalized to the largest positive control response in each plate (45 μM ACh) after background noise was subtracted. When performing the antagonist assay, cells were pre-incubated with different doses of antagonistic ligands for 5 min in RT (in a 96-well plate) and subsequently a 50 μL of 10 μM ACh solution was injected into the wells. The changes in luminescence were measured for 25 s immediately after injecting ACh, and time integrated values were normalized to the response of those wells in each plate that only contained cells with medium. A dose-response curve was plotted afterwards for each data set and half-maximum response values (EC50 or IC50) along the Hill coefficient (nH) were calculated using GraphPad Prism 8.0 (GraphPad Software). Two and three biological replicates were performed for the testing of T. spiralis GARs with or without the Gα15(16) and agonistic or antagonistic assay, respectively, with three technical replicates for each ligand. In terms of negative controls, a mock transfection was performed using empty pcDNA3.1 (+) plasmid, with an aequorin reporter and Gα15(16) subunit. To confirm the specificity of T. spiralis GAR-1, -2, and -3 affinity, we tested dopamine, octopamine and norepinephrine chemical agents.

A. suum GAR-1 = test system: A. suum GAR-1; parameters: method as in Kimber et al., 2009; details: ref Kimber et al., 2009; cited from earlier work
TsGAR-1 [2] = biological target: T2, TsGAR-1 (Trichinella spiralis, UniProt A0A0V1C1R2); assay: Aequorin calcium mobilization agonist assay in CHO-K1 cells expressing TsGAR-1; format: cell-based; details: for ACh-mediated calcium mobilization via TsGAR-1 (in words): Fig. 4
Description: as §1, §2

TsGAR-3 [3] = biological target: T3, TsGAR-3 (Trichinella spiralis, UniProt E5S5F5); assay: Aequorin calcium mobilization agonist assay in CHO-K1 cells expressing TsGAR-3; format: cell-based; details: for ACh-mediated calcium mobilization via TsGAR-3 (in words): Fig. 4
Description: as §1, §2

TsGAR-1 [4] = biological target: T2, TsGAR-1; assay: Aequorin antagonist assay (block of 10 μM ACh response) in CHO-K1 cells expressing TsGAR-1; format: cell-based; details: co-expressed with Gα15(16)
Description: as §1
as §2, with “In terms of negative controls, a mock transfection was performed using empty pcDNA3.1 (+) plasmid, with an aequorin reporter and Gα15(16) subunit. To confirm the specificity of T. spiralis GAR-1, -2, and -3 affinity, we tested dopamine, octopamine and norepinephrine chemical agents.” left out

TsGAR-2 [5] = biological target: T1, TsGAR-2; assay: Aequorin antagonist assay (block of 10 μM ACh response) in CHO-K1 cells expressing TsGAR-2; format: cell-based; details: co-expressed with Gα15(16)
Description: as §1, §2

D. melanogaster mAChR-B = test system: D. melanogaster mAChR-B; parameters: method as in Collin et al., 2013; details: ref Collin et al., 2013, cited from earlier work; for antagonist effect on D. melanogaster mAChR-B (in words): same expression system as this study
C. elegans GAR-1 = test system: C. elegans GAR-1; parameters: method as in Lee et al., 1999, Lee et al., 2000; details: ref Lee et al., 1999, Lee et al., 2000; cited from earlier work
TsGAR-3 [6] = biological target: T3, TsGAR-3; assay: Aequorin antagonist assay (block of 10 μM ACh response) in CHO-K1 cells expressing TsGAR-3; format: cell-based; details: for nH (Hill coefficient), antagonist, TsGAR-3 / antagonist effect on TsGAR-3 (in words): without Gα15(16)
Description: Therefore, there were two types of transient expression: i) TsGAR-1, -2, or -3/aequorin/Gα15(16); and ii) TsGAR-1, -2, or -3/aequorin.
as §2, with “Briefly,” for “For handling cell lines, all transfection details, and monitoring receptor activities, we followed the previously published study ([Šimo et al., 2011], [2013]; [Mateos-Hernández et al., 2020]). Briefly,”, “Immediately after the cell injections, luminescence values were monitored for 25 s and their integrated values over time were normalized to the largest positive control response in each plate (45 μM ACh) after background noise was subtracted.” left out

T. castaneum mAChR-B = test system: T. castaneum mAChR-B; parameters: method as in Collin et al., 2013; details: ref Collin et al., 2013, cited from earlier work; for antagonist effect on T. castaneum mAChR-B (in words): same expression system as this study
C. elegans GAR-2 = test system: C. elegans GAR-2; parameters: method as in Lee et al., 1999, Lee et al., 2000; details: ref Lee et al., 1999, Lee et al., 2000; cited from earlier work
[7] = agonist, co-expressed with Gα15(16)
[8] = times lower sensitivity than mAChR-A
[9] = expressed alone, without Gα15(16)

T2 sequence (A0A0V1C1R2 entry or part of it): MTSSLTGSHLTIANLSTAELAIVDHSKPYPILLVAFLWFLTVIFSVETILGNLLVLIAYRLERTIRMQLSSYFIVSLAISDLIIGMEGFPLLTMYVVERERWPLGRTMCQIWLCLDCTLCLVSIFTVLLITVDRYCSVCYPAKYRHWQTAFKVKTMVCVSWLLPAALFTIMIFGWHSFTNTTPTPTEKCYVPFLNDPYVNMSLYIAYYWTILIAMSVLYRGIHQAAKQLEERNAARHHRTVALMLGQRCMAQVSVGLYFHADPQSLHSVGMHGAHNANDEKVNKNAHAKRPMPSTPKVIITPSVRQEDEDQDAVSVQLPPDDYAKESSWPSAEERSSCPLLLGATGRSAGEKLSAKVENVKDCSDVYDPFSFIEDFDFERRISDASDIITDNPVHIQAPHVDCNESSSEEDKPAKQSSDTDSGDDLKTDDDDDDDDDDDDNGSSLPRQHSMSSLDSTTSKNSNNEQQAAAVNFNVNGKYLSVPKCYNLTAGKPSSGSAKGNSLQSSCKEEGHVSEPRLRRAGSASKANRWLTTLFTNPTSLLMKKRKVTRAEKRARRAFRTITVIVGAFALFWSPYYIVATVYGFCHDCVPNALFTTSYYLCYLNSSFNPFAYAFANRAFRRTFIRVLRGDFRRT
T3 sequence (E5S5F5 entry or part of it): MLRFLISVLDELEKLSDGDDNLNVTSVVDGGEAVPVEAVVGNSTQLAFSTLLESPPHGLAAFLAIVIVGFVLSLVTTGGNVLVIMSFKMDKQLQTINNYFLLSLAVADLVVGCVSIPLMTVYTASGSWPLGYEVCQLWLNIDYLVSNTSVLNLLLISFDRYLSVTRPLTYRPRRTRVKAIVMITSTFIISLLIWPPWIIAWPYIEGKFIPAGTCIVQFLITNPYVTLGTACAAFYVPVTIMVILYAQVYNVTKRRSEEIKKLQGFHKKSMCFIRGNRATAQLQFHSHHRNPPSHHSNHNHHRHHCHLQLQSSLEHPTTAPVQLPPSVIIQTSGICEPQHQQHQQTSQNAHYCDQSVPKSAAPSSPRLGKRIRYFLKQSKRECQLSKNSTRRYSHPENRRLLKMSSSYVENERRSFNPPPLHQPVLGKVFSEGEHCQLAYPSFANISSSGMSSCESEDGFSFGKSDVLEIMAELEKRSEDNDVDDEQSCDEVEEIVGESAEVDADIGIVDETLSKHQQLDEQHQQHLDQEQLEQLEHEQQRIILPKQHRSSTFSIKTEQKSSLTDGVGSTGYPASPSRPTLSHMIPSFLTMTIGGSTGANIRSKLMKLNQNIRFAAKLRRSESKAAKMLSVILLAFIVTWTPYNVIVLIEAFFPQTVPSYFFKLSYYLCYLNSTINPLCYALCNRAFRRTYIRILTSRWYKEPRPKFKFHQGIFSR
T1 sequence (E5SAZ1 entry or part of it): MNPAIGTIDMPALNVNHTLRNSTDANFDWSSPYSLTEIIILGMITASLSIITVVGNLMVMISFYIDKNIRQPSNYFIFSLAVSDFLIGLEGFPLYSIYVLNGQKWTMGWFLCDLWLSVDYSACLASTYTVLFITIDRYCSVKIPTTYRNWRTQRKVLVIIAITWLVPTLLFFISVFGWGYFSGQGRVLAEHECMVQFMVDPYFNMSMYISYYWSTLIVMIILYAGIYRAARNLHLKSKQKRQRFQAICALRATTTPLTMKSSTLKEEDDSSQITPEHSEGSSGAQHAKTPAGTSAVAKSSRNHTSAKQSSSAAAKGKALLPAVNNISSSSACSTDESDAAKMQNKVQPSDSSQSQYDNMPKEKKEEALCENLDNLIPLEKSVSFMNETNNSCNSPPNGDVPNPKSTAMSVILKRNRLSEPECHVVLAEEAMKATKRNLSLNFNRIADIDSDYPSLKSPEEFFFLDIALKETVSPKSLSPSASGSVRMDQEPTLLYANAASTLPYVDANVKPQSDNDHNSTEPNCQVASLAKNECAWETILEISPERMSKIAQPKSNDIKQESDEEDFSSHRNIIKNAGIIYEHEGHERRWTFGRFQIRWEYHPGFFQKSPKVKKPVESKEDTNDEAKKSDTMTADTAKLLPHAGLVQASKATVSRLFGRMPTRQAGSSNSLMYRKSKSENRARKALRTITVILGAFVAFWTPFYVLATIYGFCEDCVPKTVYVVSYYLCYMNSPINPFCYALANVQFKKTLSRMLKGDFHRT

Structure (SMILES) | agonist activity on TsGAR-2 (in words) (TsGAR-2 [1]; co-expressed with Gα15(16)) | EC50 (TsGAR-1 [2]) [nM] | nH (Hill coefficient), agonist, TsGAR-1 (TsGAR-1 [2]; [7]) | agonist activity on TsGAR-1 (in words) (TsGAR-1 [2]; co-expressed with Gα15(16)) | EC50 (TsGAR-3 [3]) [nM] | nH (Hill coefficient), agonist, TsGAR-3 (TsGAR-3 [3]; without Gα15(16)) | agonist activity on TsGAR-3 (in words) (TsGAR-3 [3]; without Gα15(16)) | antagonist effect on TsGAR-1 (in words) (TsGAR-1 [4]) | antagonist effect on TsGAR-2 (in words) (TsGAR-2 [5]) | IC50 (TsGAR-3 [6]) [nM] | nH (Hill coefficient), antagonist, TsGAR-3 (TsGAR-3 [6]) | antagonist effect on TsGAR-3 (in words) (TsGAR-3 [6]) | EC50 (TsGAR-2 [1]) [nM] | nH (Hill coefficient), agonist, TsGAR-2 (TsGAR-2 [1]; [7]) | other results
COC(=O)C1=CCCN(C)C1 [Arecoline, arecoline hydrobromide] | did not detect any arecoline-triggered activation | 4630 ± 841 | 1.054 | partial agonist | 457 ± 156 | 1.199 | partial agonist |  |  |  |  |  |  |  | agonist activity on A. suum GAR-1 (in words) (A. suum GAR-1): effectively activate
CN1[C@@H]2CC[C@H]1C[C@@H](OC(=O)C(CO)c1ccccc1)C2 (stereo partly drawn) [Atropine, atropine] |  |  |  |  |  |  |  | not effective in blocking; also recorded: totally ineffective | not effective in blocking | 222 ± 42.7 | −0.8748 | effectively inhibited |  |  | antagonist effect on A. suum GAR-1 (in words) (A. suum GAR-1): effective in inhibiting; also recorded: effectively blocked; antagonist effect on D. melanogaster mAChR-B (in words) (D. melanogaster mAChR-B): remained unaffected; antagonist effect on C. elegans GAR-1 (in words) (C. elegans GAR-1): effective in inhibiting; also recorded: effectively blocked; antagonist effect on T. castaneum mAChR-B (in words) (T. castaneum mAChR-B): remained unaffected
C[C@@H]1O[C@H](C[N+](C)(C)C)C[C@H]1O [Muscarine, (+)-muscarine chloride] | low affinity |  |  | no | 2500 ± 960 | 0.7106 | potent agonist |  |  |  |  |  | > 10000 | 0.8666 | sensitivity of D. melanogaster mAChR-B relative to mAChR-A (D. melanogaster mAChR-B; [8]): about 1000 times; sensitivity of T. castaneum mAChR-B relative to mAChR-A (T. castaneum mAChR-B; [8]): ~100 times
CC(=O)OCC[N+](C)(C)C [Acetylcholine, acetylcholine chloride] | potent activator |  | 0.8621 | potent activator | 400 ± 73.1 | 0.7319 | potent activator |  |  |  |  |  |  | 0.5883 | EC50 (TsGAR-2 [1]; agonist, CHO cells, co-expressed with Gα15(16), SE of three biological replications, read-out: EC50 ± SE (nM), TsGAR-2): 14.7 ± 10.8 nM; ACh-mediated calcium mobilization via TsGAR-2 (in words) (TsGAR-2 [1]; co-expressed with Gα15(16)): dose-dependent activity; ACh-mediated calcium mobilization via TsGAR-2 (in words) (TsGAR-2 [1]; [9]): effective responses; EC50 (TsGAR-1 [2]; agonist, CHO cells, co-expressed with Gα15(16), SE of three biological replications, read-out: EC50 ± SE (nM), TsGAR-1): 194 ± 18.1 nM; ACh-mediated calcium mobilization via TsGAR-1 (in words) (TsGAR-1 [2]; co-expressed with Gα15(16)): dose-dependent activity; ACh-mediated calcium mobilization via TsGAR-1 (in words) (TsGAR-1 [2]; [9]): effective responses; ACh-mediated calcium mobilization via TsGAR-3 (in words) (TsGAR-3 [3]; co-expressed with Gα15(16)): dose-dependent activity; ACh-mediated calcium mobilization via TsGAR-3 (in words) (TsGAR-3 [3]; [9]): effective responses
CN1[C@@H]2C[C@@H](OC(=O)[C@H](CO)c3ccccc3)C[C@H]1[C@@H]1O[C@@H]12 [Scopolamine, (−)-scopolamine hydrobromide trihydrate] |  |  |  |  |  |  |  | not effective in blocking | not effective in blocking | 27.3 ± 6.3 | −1.151 | effectively inhibited |  |  | antagonist effect on D. melanogaster mAChR-B (in words) (D. melanogaster mAChR-B): remained unaffected; antagonist effect on T. castaneum mAChR-B (in words) (T. castaneum mAChR-B): remained unaffected
C[N+](C)(C)CCOC(N)=O [Carbachol, carbamoylcholine chloride] |  | 2050 ± 235 | 0.8693 |  | 1930 ± 256 | 0.9117 |  |  |  |  |  |  | 2670 ± 508 | 0.9531 | 
CCCOC(C(=O)OC1CCN(C)CC1)(c1ccccc1)c1ccccc1 [Propiverine, propiverine hydrochloride] |  |  |  |  |  |  |  | partially blocked | partially blocked | > 10000 | −0.6649 | partially blocked |  |  | antagonist effect on C. elegans GAR-2 (in words) (C. elegans GAR-2): largely no effect; IC50 (TsGAR-1 [4]; antagonist vs 10 μM ACh, read-out: IC50 ± SE (nM), TsGAR-1): > 10000 nM; antagonist effect on A. suum GAR-1 (in words) (A. suum GAR-1): largely no effect; IC50 (TsGAR-2 [5]; antagonist vs 10 μM ACh, read-out: IC50 ± SE (nM), TsGAR-2): > 10000 nM; nH (Hill coefficient), antagonist, TsGAR-2 (TsGAR-2 [5]; antagonist): −3.002; antagonist effect on C. elegans GAR-1 (in words) (C. elegans GAR-1): largely no effect
CC(C[N+](C)(C)C)OC(N)=O (stereo not drawn) [Bethanechol, bethanechol chloride] | low potency | > 10000 | 0.9289 | low potency | > 10000 | 1.390 | low potency |  |  |  |  |  | > 10000 | 0.8738 | agonist activity on A. suum GAR-1 (in words) (A. suum GAR-1): agonistic effect was shown
